Several values for one entry are separate records, joined by “and”; a condition that tells them apart may be missing. Equal entries are not always repeated. Some results are limits rather than exact numbers.

Type in all cases: physicochemical
Data set [1] is described as follows: Aqueous solubility of solid state forms (with post-solubility pH and XRPD of excess solid). Conditions: for pH of the sample post-solubility: after aqueous solubility test; for solid form of excess solid post aqueous solubility analysis (XRPD): excess solid analyzed by XRPD.
A short description of data set [2]: Gravimetric Vapour Sorption (GVS), hygroscopicity, with post-GVS XRPD. As to conditions: for GVS uptake: 25° C.; for solid form post-GVS (XRPD): material analyzed post-GVS by XRPD. As for the experimental part:
Approximately 10-20 mg of sample was placed into a mesh vapor sorption balance pan and loaded into an IGASorp Moisture Sorption Analyser balance by Hiden Analytical. The sample was subjected to a ramping profile from 40-90% relative humidity (RH) at 10% increments, maintaining the sample at each step until a stable weight had been achieved (98% step completion, minimum step length 30 minutes, maximum step length 60 minutes) at 25° C. After completion of the sorption cycle, the sample was dried using the same procedure to 0% RH, and finally taken back to the starting point of 40% RH, using the same parameters outlined above. Two complete cycles were performed. The weight change during the sorption/desorption cycles were plotted, allowing for the hygroscopic nature of the sample to be determined.

Data set [3] in a line: Variable temperature XRPD (VT-XRPD): polymorphic form at each temperature. As to the method: VT-XRPD analysis was carried out on a Philips X'Pert Pro Multipurpose diffractometer equipped with a temperature chamber. The samples were loaded onto the VT stage and scanned between 4 and 35.99 °2θ using Cu K radiation (α1 λ=1.54060 Å; α2=1.54443 Å; β=1.39225 Å; α1:α2 ratio=0.5) running in Bragg-Brentano geometry (step size 0.008 °2θ) using 40 kV/40 mA generator settings. Measurements were performed at various temperature profiles. Any holds at specific temperatures are described in the temperature profiles for individual samples.
In another embodiment, VT-XRPD analysis of Compound A Form 11 was carried out using the heating program below in Table 11.

Data set [4] in a line: Carr's index (powder flowability) of micronized material. Conditions: micronized to d50≤3 μm and d90≤5 μm; for Flowability: class from Carr's index. As to the method:
A widely-used metric for how well a powder flows is Carr's index (see, for example, Wang, Y. B. and Williams, R. O. III, “Powders” in Remington: Essentials of Pharmaceutics, Felton, L., ed., London: Pharmaceutical Press, 2013 at pp. 422-423). The bulk density of a powder is measured, along with its corresponding tapped density (after allowing the powder to be compressed in a standard tap density tester, such as the Gardco JV1000, Paul N. Gardner Company, Pompano Beach, Fla., according to a standard method such as that described in Chapter 616 of the United States Pharmacopeia). Once the bulk and tapped densities of a powder have been determined experimentally, Carr's index can be calculated from the following equation: Carr's index=(tapped density−bulk density)/tapped density×100.

A short description of data set [5]: Stability studies: seeded slurry trials, XRPD of the solid. As to conditions: substance used as seed material. As for the experimental part:
Samples of the Compound A Form slurries and the Compound A Form 11 slurries were taken for XRPD analysis after 24 hours at 40° C., after 2 hours at 5° C. and after 24 hours at 5° C.

The mark [6] stands for this setting: 25° C., final scan after cooling from the top temperature.

Consider `Cc1cc(N2CCc3cc(F)ccc3C2)cc(C)c1NC(=O)CC(C)(C)C` [Compound A Form 2, N-(4-(6-fluoro-3,4-dihydroisoquinolin-2(1H)-yl)-2,6-dimethylphenyl)-3,3-dimethylbutanamide], for which the “pH of the sample post-solubility” value in data set [1] is listed as 6.4. The “solid form of excess solid post aqueous solubility analysis (XRPD)” value in data set [1] is given as “Compound A Form 2”. Besides, in data set [1] (water, thermodynamic from solid), the solubility (as a rule, how much of the substance goes into solution per volume) is under 100 µg/mL. Also, the “hygroscopicity by GVS analysis” value in data set [2] was “slightly hygroscopic”. Also, in data set [2] (between 0-90% RH), the GVS uptake was 0.37%. Besides, the “solid form post-GVS (XRPD)” value in data set [2] is recorded as “Compound A Form 2”. The “VT-XRPD Polymorphic Form” value was “Amorphous” in data set [3] (setting [6]); “Form 2” in data set [3] (25° C., initial scan); “Form 2” in data set [3] (50° C.); “Form 2” in data set [3] (100° C.); “Partially crystalline” in data set [3] (160° C.); “Partially crystalline” in data set [3] (165° C.). Also, the “VT-XRPD Polymorphic Form” value in data set [3] (170° C.), in data set [3] (180° C.) and in data set [3] (180° C. (post 10 minute hold)) was “Amorphous” each time.

For `Cc1cc(N2CCc3cc(F)ccc3C2)cc(C)c1NC(=O)CC(C)(C)C` [Compound A Form 4, N-(4-(6-fluoro-3,4-dihydroisoquinolin-2(1H)-yl)-2,6-dimethylphenyl)-3,3-dimethylbutanamide], in data set [1], the aqueous solubility (usually the dissolved amount per volume that the medium holds) is under 100 µg/mL. In addition, the “pH of the sample post-solubility” value in data set [1] is 6.3 and 4.9. Besides, in data set [1], the “solid form of excess solid post aqueous solubility analysis (XRPD)” value was “mixture of Compound A Form 4 and Compound A Form 11”. Further, in data set [2], the “hygroscopicity by GVS analysis” value is recorded as “slightly hygroscopic”. In data set [2] (at 90% RH), this compound registered a GVS uptake of 0.4%. In addition, the “solid form post-GVS (XRPD)” value in data set [2] is on record as “Compound A Form 4”. In addition, the “VT-XRPD Polymorphic Form” value in data set [3] (setting [6]) was “Form 9”; in data set [3] (25° C., initial scan) it was “Form 4”; in data set [3] (50° C.) it was “Form 4”; in data set [3] (60° C.), “Form 4”; in data set [3] (70° C.), “Form 4”; in data set [3] (80° C.) it was “Form 4”. The “VT-XRPD Polymorphic Form” value in data set [3] (95° C.) is “Form 4”; in data set [3] (100° C.), “Form 4”; in data set [3] (110° C. (5 minute hold)) it was “Form 4 +”; in data set [3] (120° C. (5 minute hold)), “Form 4 +”; in data set [3] (130° C. (5 minute hold)) it was “Form 4 +”; in data set [3] (140° C. (5 minute hold)), “Form 9”. Moreover, in data set [4], the “Carr's index” value is recorded as 8. For the same compound, the Flowability result in data set [4] is “excellent”. In addition, the “Solid after 2 hours at 5° C. (XRPD)” value in data set [5] (slurry in 1-Propanol) and in data set [5] (slurry in Ethanol) was “Form 4” throughout. Further, the “Solid after 24 hours at 5° C. (XRPD)” value in data set [5] (slurry in 1-Propanol) and in data set [5] (slurry in Ethanol) was “Form 4” in each case. Also, the “Solid after 24 hours at 40° C. (XRPD)” value in data set [5] (slurry in 1-Propanol) is listed as “Form 2 + 4”; in data set [5] (slurry in Ethanol), “Form 4”.

The compound `Cc1cc(N2CCc3cc(F)ccc3C2)cc(C)c1NC(=O)CC(C)(C)C` [Compound A Form 9, N-(4-(6-fluoro-3,4-dihydroisoquinolin-2(1H)-yl)-2,6-dimethylphenyl)-3,3-dimethylbutanamide] had an aqueous solubility in data set [1] of under 100 µg/mL. The “pH of the sample post-solubility” value in data set [1] is recorded as 7.3. The “solid form of excess solid post aqueous solubility analysis (XRPD)” value in data set [1] is “converted to Compound A Form 4”. In data set [2], the “hygroscopicity by GVS analysis” value was “slightly hygroscopic”. The GVS uptake in data set [2] (at 90% RH) was determined as 0.8%. In addition, in data set [2], the “solid form post-GVS (XRPD)” value is listed as “Compound A Form 9”. The “VT-XRPD Polymorphic Form” value is “Amorphous” in data set [3] (setting [6]); “Form 9” in data set [3] (25° C., initial scan); “Form 9” in data set [3] (50° C.); “Form 9” in data set [3] (100° C.); “Form 9” in data set [3] (150° C.); “Form change noted-Similar to Form 9” in data set [3] (155° C.). Besides, the figures for the “VT-XRPD Polymorphic Form” value in data set [3] (165° C.), in data set [3] (170° C.) and in data set [3] (180° C.) were “Partially crystalline”, “Partially crystalline” and “Amorphous”, respectively.

Take `Cc1cc(N2CCc3cc(F)ccc3C2)cc(C)c1NC(=O)CC(C)(C)C` [Compound A Form 11, N-(4-(6-fluoro-3,4-dihydroisoquinolin-2(1H)-yl)-2,6-dimethylphenyl)-3,3-dimethylbutanamide]: the “hygroscopicity by GVS analysis” value in data set [2] is on record as “slightly hygroscopic”. In data set [2] (at 90% RH), this compound had a GVS uptake of 0.5%. Further, the “solid form post-GVS (XRPD)” value in data set [2] was “mixture of Compound A Form 4 and Compound A Form 11”. Moreover, the “VT-XRPD Polymorphic Form” value in data set [3] (setting [6]) is “Amorphous”; in data set [3] (25° C., initial scan), “Form 11”; in data set [3] (50° C.), “Form 11”; in data set [3] (100° C.), “Form 11”; in data set [3] (150° C.) it was “Form change”; in data set [3] (155° C.) it was “Partially crystalline”. Also, the “VT-XRPD Polymorphic Form” value in data set [3] (160° C.) is given as “Partially crystalline”; in data set [3] (165° C.), “Partially crystalline”; in data set [3] (170° C.) it was “Partially crystalline”; in data set [3] (180° C.), “Partially crystalline”; in data set [3] (190° C.) it was “Amorphous”. Also, the “Solid after 2 hours at 5° C. (XRPD)” value in data set [5] (slurry in 1-Propanol) and in data set [5] (slurry in Ethanol) was “Form 4” in each case. The “Solid after 24 hours at 5° C. (XRPD)” value in data set [5] (slurry in 1-Propanol) and in data set [5] (slurry in Ethanol) was “Form 4” throughout. The “Solid after 24 hours at 40° C. (XRPD)” value in data set [5] (slurry in Ethanol) is “Form 2”.

On to `Cc1cc(N2CCc3cc(F)ccc3C2)cc(C)c1NC(=O)CC(C)(C)C` [Compound A, N-(4-(6-fluoro-3,4-dihydroisoquinolin-2(1H)-yl)-2,6-dimethylphenyl)-3,3-dimethylbutanamide], for which, in data set [4], the “Carr's index” value is listed as 36 and the Flowability entry is “very poor”.

(Values after US11091441B2, “Solid state crystalline forms of a selective potassium channel modulator” (Xenon Pharmaceuticals Inc., priority 2019, dated 2021).)
